In ChEMBL document CHEMBL3120047, “Ligand bioactive conformation plays a critical role in the design of drugs that target the hepatitis C virus NS3 protease” (J Med Chem, 2014):
Non-standard residues stand in square brackets, D forms with d. Residues, ends and D or L forms follow the SMILES beside them. *: point of attachment. Hyp = O=C(O)[C@@H]1C[C@@H](O)CN1; Nva = CCC[C@H](N)C(=O)O; Bn = c1ccc(C*)cc1

Assay: Inhibition of HCV genotype 1b NS3/NS4A protease using DDIVPCSMSYTW as substrate by radiometric enzymatic assay
Set-up: species or system Hepatitis C virus subtype 1b

C=C[C@@H]1C[C@]1(NC(=O)[C@@H]1C[C@@H](Oc2cc(-c3ccccc3)nc3cc(OC)ccc23)CN1C(=O)[C@@H](NC(=O)OC(C)(C)C)C(C)(C)C)C(=O)O
Ki: 20 nM

C=C[C@@H]1C[C@]1(NC(=O)[C@@H]1C[C@@H](Oc2cc(-c3ccccc3)nc3cc(OC)ccc23)CN1C(C)=O)C(=O)O
Ki: 28000 nM

C=C[C@@H]1C[C@]1(NC(=O)[C@@H]1C[C@@H](Oc2ccnc3ccccc23)CN1C(=O)[C@@H](NC(=O)OC(C)(C)C)C(C)(C)C)C(=O)O
Ki: 140 nM

C=C[C@@H]1C[C@]1(NC(=O)[C@@H]1C[C@@H](Oc2cccc3ccccc23)CN1C(=O)[C@@H](NC(=O)OC(C)(C)C)C(C)(C)C)C(=O)O
Ki: 310 nM

C=C[C@@H]1C[C@]1(NC(=O)[C@@H]1C[C@@H](Oc2ccncc2)CN1C(=O)[C@@H](NC(=O)OC(C)(C)C)C(C)(C)C)C(=O)O
Ki: 29000 nM

C=C[C@@H]1C[C@]1(NC(=O)[C@@H]1C[C@@H](Oc2ccccc2)CN1C(=O)[C@@H](NC(=O)OC(C)(C)C)C(C)(C)C)C(=O)O
Ki: 29000 nM

C=C[C@@H]1C[C@]1(NC(=O)[C@@H]1CCCN1C(=O)[C@@H](NC(=O)OC(C)(C)C)C(C)(C)C)C(=O)O
Ki: > 600000 nM

COc1ccc2c(O[C@@H]3C[C@@H](C(=O)NC4(C(=O)O)CC4)N(C(=O)[C@@H](NC(=O)OC(C)(C)C)C(C)(C)C)C3)cc(-c3ccccc3)nc2c1
Ki: 350 nM

COc1ccc2c(O[C@@H]3C[C@@H](C(=O)NCC(=O)O)N(C(=O)[C@@H](NC(=O)OC(C)(C)C)C(C)(C)C)C3)cc(-c3ccccc3)nc2c1
Ki: 56000 nM

C=C[C@@H]1C[C@]1(NC(=O)[C@@H]1C[C@@H](Oc2cc(-c3ccccc3)nc3cc(OC)ccc23)CN1C(=O)[C@H](C)NC(=O)OC(C)(C)C)C(=O)O
Ki: 310 nM

C=C[C@@H]1C[C@]1(NC(=O)[C@@H]1C[C@@H](Oc2cc(-c3ccccc3)nc3cc(OC)ccc23)CN1C(=O)CNC(=O)OC(C)(C)C)C(=O)O
Ki: 3000 nM

C=C[C@@H]1C[C@]1(NC(=O)[C@@H]1C[C@@H](Oc2cc(-c3ccccc3)nc3cc(OC)ccc23)CN1C(=O)CC(C)(C)C)C(=O)O
Ki: 1600 nM

CCC[C@H](NC(=O)[C@@H]1C[C@@H](OCc2ccccc2)CN1C(=O)[C@@H](NC(=O)[C@@H](NC(=O)[C@H](CC(=O)O)NC(=O)[C@H](CC(=O)O)NC(C)=O)[C@@H](C)CC)C(C)C)C(=O)O (Ac-DDIV[Hyp](Bn)[Nva]-OH)
Ki: 1900 nM

H-DDIVPC-OH
IC50: 71000 nM
Ki: 19000 nM
